From patent EP2253266A1, “Method for treating patients with cerebral calcifications” (Assistance Publique - Hôpitaux de Paris, priority 2009, dated 2010)

What was measured:
[1] = tested on: patients having diffuse cerebral calcifications; experiment: Clinical response to treatment of patients with cerebral calcifications and cerebral folate deficiency (global disability score, subjective evaluations, neurological examination, serial videos); format: in vivo, humans; parameters: key to Global score after treatment: 1: Autonomous for all activities of daily living; 2: can walk at least 100 meters alone, needs help for few activities of daily living; 3: can walk unaided about 10 meters, needs help for many activities of daily living; 4: can not walk alone, needs aid for most activities of daily living; conditions: for Global score after treatment: global score before treatment 3
Excerpt: Three patients having diffuse cerebral calcifications involving the basal ganglia, cerebellar dentate nuclei, white matter and in one patient the occipital cortex (Table 3) were studied. These neuroradiological findings were indistinguishable from Fahr's Syndrome (IBGC MIM # 114100, # 213600). […] Autonomous for all activities of daily living • 2: can walk at least 100 meters alone, needs help for few activities of daily living • 3: can walk unaided about 10 meters, needs help for many activities of daily living • 4: can not walk alone, needs aid for most activities of daily living. The clinical response to treatment was judged based on the patient's, patient's family, nurses and neurologist subjective evaluations, neurological examination and serial videos. A global disability score was designed to evaluate clinical severity and evolution (see table 3 legend). Table 4: Effect of treatments

[2] = quoted from WO 2006/119589; cited from earlier work
[3] = quoted from WO 2006/119589; cited from earlier work; remark: listed apart in the source

For CN1c2c(nc(N)[nH]c2=O)NCC1CNc1ccc(C(=O)NC(CCC(=O)O)C(=O)O)cc1 (stereo not shown) [MTHF, 5-methyltetrahydrofolate], the “Global score after treatment” value ([1]; patient #1, MTHF 2 mg/kg/d, treatment duration 2 years ½) was 2, the “Global score after treatment” value ([1]; patient #2, MTHF 2 mg/kg/d, treatment duration 14 months) was 3 and the “Global score after treatment” value ([1]; patient #3, MTHF 1.5 mg/kg/d, treatment duration 1 year) was 2. The toxicity studies [2] was “no adverse effects” and the bio-availability [3] was “high bio-availability”.
In the case of Nc1nc2c(c(=O)[nH]1)N(C=O)C(CNc1ccc(C(=O)N[C@@H](CCC(=O)O)C(=O)O)cc1)CN2 (stereo partly shown) [Calcium folinate, 5-formyltetrahydrofolic acid], the “other treatments leading to less or only transient improvement” value ([1]; patient #1, IVIg 0.4gr/kgX5d every 6weeks) is reported as “Calcium folinate led to marked initial impro-vement that waned after 6 months. IVIg (0.4gr/kgX5d every 6weeks) led to improvement of walking during 4 months” and the “other treatments leading to less or only transient improvement” value ([1]; patient #3, Calcium folinate 75 mg/d) is reported as “Calcium folinate 75 mg/d: same effect than MTHF”.
